Target: human capsaicin receptor (VR1) (Homo sapiens, UniProt Q8NER1)
Assay: Capsaicin receptor binding assay ([3H]RTX competition, VR1-transfected HEK293 membranes)

Chain of human capsaicin receptor (VR1) (Q8NER1 whole entry): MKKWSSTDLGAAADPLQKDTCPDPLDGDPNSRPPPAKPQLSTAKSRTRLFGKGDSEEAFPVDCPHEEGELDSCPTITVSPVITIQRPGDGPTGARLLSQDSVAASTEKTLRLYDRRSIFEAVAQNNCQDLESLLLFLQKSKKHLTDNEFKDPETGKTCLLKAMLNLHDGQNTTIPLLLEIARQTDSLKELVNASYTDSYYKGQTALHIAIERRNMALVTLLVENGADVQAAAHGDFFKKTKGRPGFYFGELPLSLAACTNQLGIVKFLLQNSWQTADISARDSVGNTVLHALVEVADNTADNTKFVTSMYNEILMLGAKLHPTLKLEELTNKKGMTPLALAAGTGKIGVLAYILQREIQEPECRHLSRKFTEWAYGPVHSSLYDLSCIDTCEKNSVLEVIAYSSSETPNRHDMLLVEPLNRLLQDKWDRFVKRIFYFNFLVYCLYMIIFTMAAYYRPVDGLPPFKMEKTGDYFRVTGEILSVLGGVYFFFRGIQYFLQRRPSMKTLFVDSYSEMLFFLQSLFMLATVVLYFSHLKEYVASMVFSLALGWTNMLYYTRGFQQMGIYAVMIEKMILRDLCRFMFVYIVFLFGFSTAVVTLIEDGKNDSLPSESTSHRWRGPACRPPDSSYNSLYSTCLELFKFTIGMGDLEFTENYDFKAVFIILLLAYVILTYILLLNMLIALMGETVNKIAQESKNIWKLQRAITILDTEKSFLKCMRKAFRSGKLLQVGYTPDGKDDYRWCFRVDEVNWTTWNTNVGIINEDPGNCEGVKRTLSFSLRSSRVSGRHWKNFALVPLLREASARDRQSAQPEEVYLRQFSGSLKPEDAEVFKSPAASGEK

Row | Ki [µM] | Structure (SMILES)
1 | < 1 | CCOCc1nc(Nc2ccc(S(=O)(=O)C(F)(F)F)cc2)c2ccc(-c3ncccc3Cl)nc2n1 [Compound 135, [7-(3-Chloro-pyridin-2-yl)-2-ethoxymethyl-pyrido[2,3-d]pyrimidin-4-yl]-(4-trifluoromethanesulfonyl-phenyl)-amine]
2 | < 1 | CCCCN(C)CCc1nc(Nc2ccc(C(F)(F)F)cc2)c2ccc(-c3ncccc3C(F)(F)F)cc2n1 [Compound 413, [2-[(Butyl-methyl-amino)-ethyl]-7-(3-trifluoromethyl-pyridin-2-yl)-quinazolin-4-yl]-(4-trifluoromethyl-phenyl)-amine]
3 | < 1 | C=CCN(C)Cc1nc(Nc2ccc(C(F)(F)F)cc2)c2ncc(-c3ncccc3C(F)(F)F)cc2n1 [Compound 662, [2-[(Allyl-methyl-amino)-methyl]-7-(3-trifluoromethyl-pyridin-2-yl)-pyrido[3,2-d]pyrimidin-4-yl]-(4-trifluoromethyl-phenyl)-amine]
4 | < 1 | O=C(O)C1CCCN(Cc2nc(Nc3ccc(C(F)(F)F)cc3)c3ccc(-c4ncccc4C(F)(F)F)cc3n2)C1 (stereo not shown) [Compound 729, 1-[4-(4-Trifluoromethyl-phenylamino)-7-(3-trifluoromethyl-pyridin-2-yl)-quinazolin-2-ylmethyl]-piperidine-3-carboxylic acid]
5 | < 1 | CN(Cc1cccc(F)c1)Cc1nc(Nc2ccc(C(F)(F)F)nc2)c2ccc(-c3ncccc3C(F)(F)F)cc2n1 [Compound 353]
6 | < 1 | CCOCc1nc(Nc2ccc(C(C)C(F)(F)F)cc2)c2ccc(-c3ncccc3Cl)nc2n1 (stereo not shown) [Compound 136, [7-(3-Chloro-pyridin-2-yl)-2-ethoxymethyl-pyrido[2,3-d]pyrimidin-4-yl]-[4-(2,2,2-trifluoro-1-methyl-ethyl)-phenyl]-amine]
7 | < 1 | FC(F)(F)c1ccc(Nc2cc(CN3CCOCC3)nc3nc(-c4ncccc4C(F)(F)F)ccc23)cc1 [Compound 800]
8 | < 1 | CCOCc1nc(Nc2ccc(C(C)C(F)(F)F)cc2)c2ccc(-c3ncccc3C(F)(F)F)nc2n1 (stereo not shown) [Compound 231, [2-Ethoxymethyl-7-(3-trifluoromethyl-pyridin-2-yl)-pyrido[2,3-d]pyrimidin-4-yl]-[4-(2,2,2-trifluoro-1-methyl-ethyl)-phenyl]-amine]
9 | < 1 | CCN1CCN(Cc2nc(Nc3ccc(C(F)(F)F)cc3)c3ccc(-c4ncccc4C(F)(F)F)cc3n2)CC1 [Compound 628, [2-(4-Ethyl-piperazin-1-ylmethyl)-7-(3-trifluoromethyl-pyridin-2-yl)-quinazolin-4-yl]-(4-trifluoromethyl-phenyl)-amine]
10 | < 1 | O=C(O)CCNC(=O)c1nc(Nc2ccc(C(F)(F)F)cc2)c2ccc(-c3ncccc3C(F)(F)F)nc2n1 [Compound 765, 3-{[4-(4-Trifluoromethyl-phenylamino)-7-(3-trifluoromethyl-pyridin-2-yl)-pyrido[2,3-d]pyrimidine-2-carbonyl]-amino}-propionic acid]
11 | < 1 | CCN(Cc1nc(Nc2ccc(C(F)(F)F)nc2)c2ccc(-c3ncccc3C(F)(F)F)cc2n1)C(C)C [Compound 371, [2-[(Ethyl-isopropyl-amino)-methyl]-7-(3-trifluoromethyl-pyridin-2-yl)-quinazolin-4-yl]-(6-trifluoromethyl-pyridin-3-yl)-amine]
12 | < 1 | O=C(NCC1CCCO1)c1nc(Nc2ccc(C(F)(F)F)cc2)c2ccc(-c3ncccc3C(F)(F)F)nc2n1 (stereo not shown) [Compound 457, 4-(4-Trifluoromethyl-phenylamino)-7-(3-trifluoromethyl-pyridin-2-yl)-pyrido[2,3-d]pyrimidine-2-carboxylic acid (tetrahydro-furan-2-ylmethyl)-amide]

Row | Structure (SMILES) | Ki [µM]
13 | Cc1cc(Nc2nc(COCC(C)C)nc3nc(-c4ncccc4C)ccc23)ccc1C(F)(F)F [Compound 183, [2-Isobutoxymethyl-7-(3-methyl-pyridin-2-yl)-pyrido[2,3-d]pyrimidin-4-yl]-(3-methyl-4-trifluoromethyl-phenyl)-amine] | < 1

— patent publication US20040156869A1, “2-substituted quinazolin-4-ylamine analogues” (Neurogen Corporation, priority 2002, published 2004)
